For 88 compounds, melting point results are on record in a melting point compilation (Tetko et al.; mined from patent text by program, amines drawn as free bases though some values may be those of a salt).

As for `Cc1cc(OCC(=O)c2ccc(C(C)C)cc2)c(C)c(C)c1Br`, the melting point lay within 71 to 72 °C.
For `CCOC(=O)c1ccc(NC(=O)c2ccc3c(c2)OCCO3)cc1` the value was 134 to 136 °C; for `O=C(O)c1ccc(NCCCc2ccccc2)cn1`, 167 to 169 °C.
Compound `Cc1ccc([N+](=O)[O-])c(C=O)c1C` gave a melting point of 66 to 68 °C.
Compound `COc1ccnc(CCc2nc3cc(-c4ccncc4)cnc3[nH]2)c1` gave a melting point of 237 to 238 °C.
As for `Cc1c(CC(=O)O)c2cc(OCc3csc(-c4ccc(Cl)cc4)n3)ccc2n1Cc1ccc(Cl)cc1`, the figure is 145 to 146 °C; as for `O=C1C=c2c(c3[nH]c4c(c3c3c2=CN=C3)CCCC4)C1`, more than 300 °C.
Turning to `Cc1ccc2c(c1)C=Cc1ncccc1C2c1cn(C)c(=O)[nH]c1=S` (stereo not drawn), the melting point lay within 157 to 160 °C.
As for `CCCCNc1c(C(=O)OCC)cnc2[nH]ncc12`, the figure is 181 °C; as for `COc1cc(CC(N)=O)c(CCc2ccc(O)c(OCc3ccccc3)c2)c(OC)c1OC`, 139 to 141 °C; as for `O=C(O)C1=CCc2ccccc21`, 157 °C.
As for `C=CCN/C(=C1/Sc2ccccc2C1=O)c1ccccc1`, the figure is 104 to 106 °C; as for `CCCCC1=CC(O)(C(Br)Br)N(Cc2ccccc2)C1=O` (stereo not drawn), 92 to 93 °C.
Compound `CSc1cccc(-c2ccccc2)c1S(N)(=O)=O` gave a melting point of 167 to 168 °C.
For `O=C(O)c1c(O)c(-c2ccc(-c3ccccc3)cc2)nc2c(Cl)cc(Cl)cc12` the value was 215 to 217 °C; for `ON=C1CN2[C@H]3CC[C@@H]2[C@@H]1[C@@H](c1ccc(Cl)c(Cl)c1)C3`, 45 to 52 °C; for `N#Cc1ccc(Cn2cncn2)c(-c2ccc(OS(N)(=O)=O)c(Cl)c2)c1`, 139 to 142 °C.
`N#Cc1c(F)cc2c(c1Cl)N1CCC[C@@H](NC(=O)C(F)(F)F)[C@@H]1c1ccc(F)cc1O2`: the melting point is 174 to 175 °C.
For `CC(=O)c1cc2c(s1)C(NC(=O)c1ccc([N+](=O)[O-])cc1)C(O)C(C)(C)O2` (stereo not drawn) the value was 223 to 225 °C.
In turn, `O=C(O)Cc1ccc(OCCc2ccccc2)c(OCc2ccccc2)c1` gave a melting point of 116 to 119 °C.
`COc1cc2c(O)c(C(=O)O)cnc2cc1F` yielded a melting point of 275 °C.
For `CN(C(=O)OC(C)(C)C)c1cc(Oc2ccc(-c3nnn[nH]3)cc2)ccc1[N+](=O)[O-]` the value was 81 to 84 °C.
Regarding `O=C(NCC1CCCCN1)c1cc(O)ccc1OCC(F)(F)F` (stereo not drawn), the melting point fell in the range of 134 to 137 °C.
As for `N#Cc1c(Cl)sc2[nH]c(=O)c(=O)[nH]c12`, the figure is more than 250 °C.
As for `Cc1c2n(c3ccccc13)C(=O)C(Cc1cccnc1)CC2` (stereo not drawn), the figure is 158 to 160 °C; as for `CCOCc1nc2c(c3cc(OCc4ccccc4)ccc3n3nnnc23)n1CC(C)C`, 184 °C; as for `COc1ccc(-c2cc(C(F)(F)F)nn2-c2ccc(S(N)(=O)=O)c(F)c2)cc1`, 130 to 131 °C.
For `Cc1ccc(CSc2nc3cc4c(cc3[nH]2)C(C)(C)C(=O)C4(C)C)nc1` the value was 220 to 222 °C; for `O=C1Nc2ccccc2C1=Cc1ccccn1`, 204 to 205 °C; for `CC(C)(C)OC(=O)N1CCn2c(C#N)c(-c3cccc(F)c3)c(C(N)=O)c2C1`, 208 to 210 °C.
As to `Cc1ccc(CNC(=O)c2ccc3n2Cc2ccccc2N(C(=O)COc2ccc(Cl)cc2)C3)cc1`, the melting point lay in the range of 174 to 176 °C.
For `N#CC1=C(C2CCN(C(=N)N)CC2)Nc2n[nH]cc2C1c1cccc2nonc12` (stereo not drawn) the value was more than 270 °C; for `COc1cc(OC)nc(Oc2cccnc2CO)n1`, 115 °C; for `COc1cc(OC)c(-c2cc3ccccc3[nH]2)cc1C=CC(=O)c1ccc(S(=O)(=O)NCC(=O)O)cc1`, 189 to 190 °C.
`CS(=O)(=O)c1ccc(C[C@@H](NC(=O)OCc2ccccc2)[C@H](O)C(N)=O)cc1`: the melting point fell in the range of 186 to 191 °C.
For `CNC(=O)NCCn1c(-c2ccc(CN3CCOCC3)cc2C)csc1=Nc1ccc(F)c(C)c1` the value was 130 to 135 °C.
Take `CS(=O)(=O)c1ccc(-c2cnn(CC(F)=C(F)F)c(=O)c2-c2ccc(F)cc2)cc1`: the melting point was 154 to 156 °C.
With `O=C(C1NCCc2occc21)N1CCCC1` (stereo not drawn), the melting point lay within 85 to 86 °C.
As for `C=C(C)C(=O)Nc1ccc(-n2nc(C(F)(F)F)cc2C(F)(F)F)cc1`, the figure is 160 to 162 °C.
As for `CN1Cc2c(C#N)ncn2-c2ccccc2C1=O`, the figure is 184 to 186 °C; as for `CCCCCCN1CN(C)C=C1C(=O)NCCCCCCOc1ccc(OC)cc1`, 35 to 36 °C.
As for `N#CC1=C(c2ccccc2)Nc2n[nH]cc2C1c1cccc2nsnc12` (stereo not drawn), the figure is 258 °C; as for `N#Cc1ccc2[nH]cc(CCCCN3CCN(c4ccc5oc(C(=O)NO)cc5c4)CC3)c2c1`, 198 to 199 °C.
`O=C(O)c1cc(C(F)(F)F)ccc1OCc1ccccc1` had a melting point of 94 to 95 °C.
As for `Cc1cn2nc(Cl)cc(C)c2n1`, the figure is 109 to 110 °C; as for `CC1(C)CCC(C)(C)C2=C1CC(C(=O)O)C2`, 125 to 129 °C.
In the case of `COc1cc(OC)nc(C(=O)O)n1`, the melting point was in the range of 155 to 157 °C.
`COC(=O)C(O)c1ccc(C#N)cc1` (stereo not drawn) returned a melting point of 51 to 52 °C.
As for `COC(=O)Cc1ccccc1OCc1cncc(OCc2nc(-c3ccccc3)oc2C)c1`, the figure is 77 to 78 °C.
The compound `CCOC(=O)c1sc2cc(COS(C)(=O)=O)ccc2c1S(=O)c1cccc(OC)c1` (stereo not drawn) returned a melting point of 80 to 83 °C.
As for `COC(=O)C1Oc2ccc(C)cc2Cc2cc(C)ccc2O1`, the figure is 158 to 160 °C.
For the compound `CCN1CCN(Cc2ccc(-c3cc4c(NCc5ccc(OC)nc5)ncnc4[nH]3)cc2)CC1`, the melting point is 305 °C.
Compound `CCOC(=O)[C@@H](O)[C@@H]1OC(=O)c2cc(OC)c(OS(=O)(=O)c3ccc(C)cc3)cc21` yielded a melting point of 107 to 108 °C.
`Cn1ncc(/C=C/C(=O)Nc2ccc(CCc3nnco3)cc2)c1-c1ccc(F)cc1` showed a melting point of 177 to 178 °C.
For `Cc1cccc(NC(=O)OC(C)(C)C)c1COc1cccn2c(C=O)c(C)nc12` the value was 189 to 191 °C.
In the case of `O=C(Nc1ccc(F)cc1)NC1C(=O)N(CC(=O)N2CCCC2)c2ccccc2N(C2CCCCC2)C1=O` (stereo not drawn), the melting point is 181 to 183 °C.
As for `CCOC(=O)CCNCC(O)COc1ccc(OC)cc1C#N` (stereo not drawn), the figure is 76 °C; as for `N#Cc1ncn2c(C(F)(F)F)cc(-c3ccccc3)nc12`, 202 °C; as for `O=[N+]([O-])c1ccc(C2OCc3ccc(CCl)cc3CO2)cc1` (stereo not drawn), 138 to 140 °C.
`COc1ccc(-c2cnc3cc4cn[nH]c4cc3n2)cc1F` came in with a melting point of 175 to 179 °C.
As for `CCc1nc2c(cnn2CC)c(NC2CCOCC2)c1CNC(=O)c1cccc(C(=O)NCc2ccc(Cl)c(-c3cccc(CN4CCNC(C)C4)c3)c2)c1` (stereo not drawn), the figure is 117 to 120 °C.
As for `COc1ccc(CNc2cc3c(Nc4ccc(Br)c(Br)c4)ncnc3cn2)cc1`, the figure is 166 to 169 °C; as for `CC(Cl)C(=O)c1ncc(Cl)cc1F` (stereo not drawn), 29 to 32 °C; as for `CC(C)C1(Br)Cc2cc(OCC(=O)O)c(Cl)c(Cl)c2C1=O` (stereo not drawn), 150 to 153 °C.
As for `CCN(CC)CCNc1nc2ccccc2n(-c2ccc(Cl)cc2)c1=O`, the figure is 96 to 98 °C; as for `CN(C)C(=O)Sc1ccc2ccncc2c1Cl`, 140 to 142 °C; as for `C=C1SC(=O)N(c2ccc3cc(-c4cc5c(c(-c6cccnc6)c4)OCO5)ccc3c2)C1=O`, 298 to 300 °C.
The compound `O=C1CCN(C(=O)c2ccc(Cl)cc2)CC1` yielded a melting point of 61 to 63 °C.
For `CNC(=O)c1cc(Br)cc(-c2ccccc2)c1`, the melting point is 132 °C.
For `Cc1ccc([N+](=O)[O-])c2c1CCCC2=O` the value was 104 to 107 °C.
Compound `Cc1cc(C)c2ncc(NC(=O)Cc3cc(C(C)(C)C)c(O)c(C(C)(C)C)c3)c(-c3ccccc3Cl)c2c1` had a melting point of 189 to 190 °C.
`CCOCCCOC(C)Cc1ccc(-c2ccc(O)cc2)cc1` (single isomer, unassigned; (-)): the melting point was in the range of 53 to 55 °C.
Turning to `C=C(C)C1CCC2(C(=O)O)CCC3(C)C(CCC4C5(C)CCC(O)C(C)(C)C5CCC43C)C12` (stereo not drawn), the melting point was in the range of 291 to 292 °C.
For `COc1cc(-c2ncnc(C(F)(F)F)c2C)c(F)cc1Cl` the value was 144 to 146 °C.
`C#CC(OC(c1ccccc1)(c1ccccc1)c1ccccc1)C(C)(C)CCCC` (stereo not drawn): the melting point fell in the range of 75 to 77 °C.
`CC(=O)c1cn(-c2c(Cl)cc(OC(F)(F)F)cc2Cl)nc1C#N` displayed a melting point of 106 to 107 °C.
For the compound `CCNC(=O)n1nc(Oc2c(Cl)cc(C(F)(F)F)cc2Cl)cc1CC(=O)OCC`, the melting point was in the range of 100 to 102 °C.
As for `CC(=O)NCc1cccc(Nc2nccc(-c3sc(-c4cccs4)nc3C)n2)c1`, the figure is 223 to 225 °C; as for `Cc1ccc2c(c1)C(NC(=O)CCl)CC(C)(C)O2` (stereo not drawn), 147 to 148 °C; as for `O=C(Cc1ccc(OCc2ccccc2)cc1)NC1(C(=O)O)Cc2ccc(-c3ccc(Cl)cc3)cc2C1` (stereo not drawn), 234 °C.
As for `Cc1c(Cl)nc(Br)n1S(=O)(=O)c1cccnc1Cl`, the figure is 144 to 146 °C; as for `CCCc1c(OCCCOc2ccc3c(c2CCC)OC(CCC(=O)OCC)CC3)ccc(C(C)=O)c1O` (stereo not drawn), 68 to 70 °C.
For `O=C1Nc2ccc3ccccc3c2CCC1(Cl)Cl` the value was 187 to 191 °C; for `CCC(O)(c1ccc(F)cc1)c1ccc(OCCN2CCCCC2)cc1` (stereo not drawn), 72 to 73 °C.
For the compound `Fc1ccc(N2CCC(N3CCc4ccccc43)CC2)cc1`, the melting point lay within 120 to 122 °C.
For the compound `COc1cccc(-c2ccc3nnn(Cc4ccc5ncccc5c4)c3n2)c1`, the melting point was 133 to 135 °C.
Regarding `Oc1cc2c(-c3ccccc3)csc2c(Cl)c1Cl`, the melting point lay in the range of 157 to 159 °C.
`C=CCSCCON=C(C(=O)O)c1csc(NC=O)n1` had a melting point of 70 to 78 °C.

The melting point is the temperature of the solid-liquid transition.
